Experimental data published in US20250154525A1, “PLANT VIRUS MOVEMENT PROTEINS AND METHODS OF USING SAME” (Molecular Transfer, Inc., priority 2016, published 2025).

Assays:
[1] = system: Human Fibroblast Cells; assay: GFP plasmid transfection with DOTMA/DOPE plus surface ligand peptide, fluorescent plate reader (Example 1); format: cell-based; settings: DOTMA/DOPE + peptide linked to R12 or K16; EF1Alpha eGFP plasmid; 42 hours
Description: (§1) Cells were plated to so that on the day of transfection the cells were 70% confluent in 96 well tissue culture plates. A DOMTA/DOPE Lipid solution (1:1 molar ratio) at 2 mg/mL in water were mixed with an equal volume cell surface ligand containing adhesion peptide, the plant virus movement protein, or peptide derived therefrom, that had the nucleic acid binding moiety RRRRRRRRRRRR (SEQ ID NO:109) or KKKKKKKKKKKKKKKK (SEQ ID NO: 102) covalently linked to the N-terminus, or C-terminus of each peptide during peptide synthesis. Peptides were at 2 mg/mL in water. The DOTMA/DOPE and the solution containing the cell surface ligand containing adhesion peptide, the plant virus movement protein, or peptide derived therefrom, surface ligand peptide the was diluted 1 to 1 (v/v) in water. DOMTA/DOPE/PEPTIDE solutions were added to 0.1 mL of a plasmid DNA solution (EF1Alpha eGFP plasmid) at 10 μg/mL in OptiMEM.
(§2) All solutions were at room temperature. A volume of 0.2 mL of a 10 μg/mL solution of DNA was aliquoted into each well of a non-tissue cultured treated plate. 1-12 μL of transfection reagents were added to DNA solutions respectively. The transfection reagent and DNA solution was mixed by pipetting up and down twice. Transfection complexes were formed for 10 minutes. After 10 minutes, 0.01 or 0.02 mL of the transfection complex was added to cells. HuVEC, HeLa, human adult keratinocytes, human primary adult fibroblast, and A549 cells all respectively received 0.01 mL of the transfection complex. Human skeletal muscle cells, mouse C2C12 cells, and Jurkat, cells received 0.02 mL of the transfection complex. Cells were incubated for 42 hours at 37° C. at 5% CO2. Plates were read on a fluorescent plate reader. Cells were also examined visually under a microscope to assess the extent of transfection (in terms of the percent of cells transfected) with a fluorescent microscope. Other modes of analysis, for example quantification with B-galactocidase or luciferase reports plasmids can also be used.
(§3) Surface ligand that caused increase expression of GFP over the lipid DOTMA with no surface ligand were considered to enhance transfection or had higher % cells transfected were considered to enhance transfection. Peptides that gave greater than 2-fold enhancement are noted in bold and could be further optimized by adding different transfection enhancers or could be used with different cationic lipids or polymers.
(§4) Tables 2-7, below, provide the results of the transfection enhancements with the various cell types, while Table 8 lists the peptides that were determined by visual inspection to enhance the transfection of the denoted cell lines over the lipid DOTMA.

[2] = system: Jurkat Cells; assay: as above; format: cell-based; settings: DOTMA/DOPE + peptide linked to R12 or K16; EF1Alpha eGFP plasmid; 42 hours
Description: as §1, §2, §3, §4

[3] = system: NL-1 iPS Cells; assay: as above; format: cell-based; settings: DOTMA/DOPE + peptide linked to R12 or K16; EF1Alpha eGFP plasmid; 42 hours
Description: as §1, §2, §3, §4

[4] = system: HuVec Cells; assay: as above; format: cell-based; settings: DOTMA/DOPE + peptide linked to R12 or K16; EF1Alpha eGFP plasmid; 42 hours
Description: as §1, §2, §3, §4

[5] = system: HeLa Cells; assay: as above; format: cell-based; settings: DOTMA/DOPE + peptide linked to R12 or K16; EF1Alpha eGFP plasmid; 42 hours
Description: as §1, §2, §3, §4

[6] = system: some examined cell types; assay: Summary of Example 1: transfection expression and % cells transfected over the no peptide control; format: cell-based; settings: on some examined cell types
Description: as §1, §2, §3

[7] = system: C2C12 Cells; assay: GFP plasmid transfection with DOTMA/DOPE plus surface ligand peptide, fluorescent plate reader (Example 1); format: cell-based, mouse; settings: DOTMA/DOPE + peptide linked to R12 or K16; EF1Alpha eGFP plasmid; 42 hours
Description: as §1, §2, §3, §4

[8] = system: HeLa Cells; assay: GFP transfection with DOTMA/SEQ ID NO: 72 (fusogenic peptide)/peptide compared with Lipofectamine 2000; format: cell-based
Description: as §1, §2
The fusogenic peptide was added to the DOMTA/peptide formulation to achieve a final concentration of 0.1 mg/mL to see if transfection reagents were further enhanced by the addition of a fusogenic peptide and could provide higher transfection efficiency into HeLa cells and expression than the commercially available Lipofectamine 2000.

[9] = 0.1 μL of DOTMA/SEQ ID NO: 72/Peptide in well of a 96 well plate
[10] = 0.2 μL of DOTMA/SEQ ID NO: 72/Peptide in well of a 96 well plate
[11] = 0.3 μL of DOTMA/SEQ ID NO: 72/Peptide in well of a 96 well plate
[12] = 0.4 μL of DOTMA/SEQ ID NO: 72/Peptide in well of a 96 well plate

Substance | Relative Fluorescence of Transfection of Human Fibroblast Cells (RF) [1] | Relative Fluorescence of Transfection of Jurkat Cells (RF) [2] | Relative Fluorescence of Transfection of NL-1 iPS Cells (RF) [3] | Relative Fluorescence of Transfection of HuVec Cells (RF) [4] | Relative Fluorescence of Transfection of HeLa Cells (RF) [5] | transfection expression and % cells transfected over the no peptide control [6] | Relative Fluorescence of Transfection of C2C12 Cells (RF) [7] | Relative Fluorescence DOTMA/SEQ ID NO: 72/Peptide, HeLa Cells (RF) [8, 9] | Relative Fluorescence DOTMA/SEQ ID NO: 72/Peptide, HeLa Cells (RF) [8, 10] | Relative Fluorescence DOTMA/SEQ ID NO: 72/Peptide, HeLa Cells (RF) [8, 11] | Relative Fluorescence DOTMA/SEQ ID NO: 72/Peptide, HeLa Cells (RF) [8, 12]
450 (TAGSCLRKFSCL) [compound 450] | 6996 | 8779 | 29856 | 20911 | 21045 | increased transfection expression and the % cells transfected | 3795 | 11962 | 17346 | 12553 | 10241
348 (HQQDLGTAGSCLRKFSTM) [compound 348] | 11802 | 15585 | 21645 | 21214 | 22289 | increased transfection expression and the % cells transfected | 8625 | 17413 | 18615 | 16164 | 15054
377 (TAGSCLRRFSTM) [compound 377] | 6638 | 6785 | 5474 | 9326 | 15091 | increased transfection expression and the % cells transfected | 1710 | 39115 | 40072 | 32914 | 22457
343 (LFSHAVSSNG) [compound 343] | 4590 | 23499 | 21726 | 16239 | 5910 | increased transfection expression and the % cells transfected | 3218 | 6961 | 8626 | 8577 | 8160
268 (GGFLKYTVSYDI) [compound 268] | 4568 | 3236 | 15697 | 5403 | 25885 | increased transfection expression and the % cells transfected | 2568 | 10162 | 9934 | 10792 | 9519
347 (DLGTAGSCLRKFSTM) [compound 347] | 9255 | 17720 | 21865 | 20728 | 22527 | increased transfection expression and the % cells transfected | 4457 | 23188 | 21493 | 16814 | 14140
503 (TAGSCLRKFSTMRRRRRRRRRRRR) [compound 503] | 13085 | 9411 | 19014 | 12123 | 25368 | increased transfection expression and the % cells transfected | 3973 | 12827 | 20006 | 17101 | 16206
218 (SPPRRARVT) [compound 218] | 11230 | 21451 | 17049 | 14827 | 11179 | increased transfection expression and the % cells transfected | 3706 | 12686 | 13103 | 10151 | 10081
360 (GDLGRPGRKGRPGPP) [compound 360] | 5347 | 16607 | 27572 | 24042 | 8516 | increased transfection expression and the % cells transfected | 2090 | 9946 | 11168 | 10381 | 8995
